Measured values from patent US9732075B2, “Benzimidazole-proline derivatives” (IDORSIA PHARMACEUTICALS LTD, priority 2012, dated 2017).

Columns and labels:
human orexin-1 receptor = human orexin-1 receptor (Homo sapiens (Human), UniProt O43613); experiment: In vitro assay: intracellular calcium measurements (FLIPR), antagonistic activity; type: cell-based; conditions: CHO cells expressing human orexin-1 receptor, orexin-A agonist, geometric mean, read-out: IC50 Ox1
Procedure, shortened: (§1)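 Read-out: FLIPR fluo-4 calcium peak height in CHO cells bearing human orexin-1 or orexin-2 receptor, relative to orexin-A (approx. EC70) with vehicle. Antagonist preincubation 120 min; agonist orexin-A at 3 nM final. IC50 possibly normalized to an on-plate reference compound.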

human orexin-2 receptor = human orexin-2 receptor (Homo sapiens (Human), UniProt O43614); experiment: as above; type: cell-based; conditions: CHO cells expressing human orexin-2 receptor, orexin-A agonist, geometric mean, read-out: IC50 Ox2
Procedure, shortened: as §1

Sequence of human orexin-1 receptor (O43613 whole entry): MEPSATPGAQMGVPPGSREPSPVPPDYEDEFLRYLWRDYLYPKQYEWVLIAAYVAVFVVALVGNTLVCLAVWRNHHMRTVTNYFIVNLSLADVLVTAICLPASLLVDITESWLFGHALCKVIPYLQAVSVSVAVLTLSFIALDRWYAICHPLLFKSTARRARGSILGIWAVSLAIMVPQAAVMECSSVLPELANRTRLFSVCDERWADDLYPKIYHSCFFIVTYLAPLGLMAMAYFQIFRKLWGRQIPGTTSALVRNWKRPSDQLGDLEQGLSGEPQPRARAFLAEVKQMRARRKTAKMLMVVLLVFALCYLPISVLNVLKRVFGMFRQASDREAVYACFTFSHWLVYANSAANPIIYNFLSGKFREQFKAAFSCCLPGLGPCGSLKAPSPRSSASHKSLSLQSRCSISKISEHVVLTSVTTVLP
Sequence of human orexin-2 receptor (O43614 whole entry): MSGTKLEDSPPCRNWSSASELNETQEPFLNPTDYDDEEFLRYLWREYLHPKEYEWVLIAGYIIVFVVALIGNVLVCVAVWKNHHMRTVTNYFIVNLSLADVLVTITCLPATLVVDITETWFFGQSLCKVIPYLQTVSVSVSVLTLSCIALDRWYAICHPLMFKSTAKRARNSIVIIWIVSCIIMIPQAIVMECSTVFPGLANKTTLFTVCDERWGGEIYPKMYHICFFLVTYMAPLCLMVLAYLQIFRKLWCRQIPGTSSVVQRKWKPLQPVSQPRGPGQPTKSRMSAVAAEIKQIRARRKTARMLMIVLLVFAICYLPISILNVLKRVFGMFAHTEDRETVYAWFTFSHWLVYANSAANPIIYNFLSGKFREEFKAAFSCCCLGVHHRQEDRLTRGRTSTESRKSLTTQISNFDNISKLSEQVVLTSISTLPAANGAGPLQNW

Compound: C[C@@]1(c2nc3cc(C(F)(F)F)c(Cl)cc3[nH]2)CCCN1C(=O)c1ccccc1-n1cccn1 [Ex. 5.141]
- IC50 (human orexin-1 receptor): 27 nM
- IC50 (human orexin-2 receptor): 244 nM

Compound: C[C@@]1(c2nc3cc(C(F)(F)F)c(Cl)cc3[nH]2)CCCN1C(=O)c1ccccc1-n1nccn1 [Ex. 5.142]
- IC50 (human orexin-1 receptor): 8 nM
- IC50 (human orexin-2 receptor): 24 nM

Compound: Cc1ccc(-n2cccn2)c(C(=O)N2CCC[C@@]2(C)c2nc3cc(C(F)(F)F)c(Cl)cc3[nH]2)n1 [Ex. 5.143]
- IC50 (human orexin-1 receptor): 7 nM
- IC50 (human orexin-2 receptor): 82 nM

Compound: C[C@@]1(c2nc3cc(C(F)(F)F)c(Cl)cc3[nH]2)CCCN1C(=O)c1cc(C(F)(F)F)ccc1-n1nccn1 [Ex. 5.144]
- IC50 (human orexin-1 receptor): 20 nM
- IC50 (human orexin-2 receptor): 210 nM

Compound: Cc1ccc(-n2nccn2)c(C(=O)N2CCC[C@@]2(C)c2nc3cc(C(F)(F)F)c(Cl)cc3[nH]2)n1 [Ex. 5.145]
- IC50 (human orexin-1 receptor): 6 nM
- IC50 (human orexin-2 receptor): 30 nM

Compound: COc1ccc(-n2nccn2)c(C(=O)N2CCC[C@@]2(C)c2nc3cc(C(F)(F)F)c(Cl)cc3[nH]2)c1F [Ex. 5.146]
- IC50 (human orexin-1 receptor): 15 nM
- IC50 (human orexin-2 receptor): 43 nM

Compound: C[C@@]1(c2nc3cc(C(F)(F)F)c(Cl)cc3[nH]2)CCCN1C(=O)c1cc(OC(F)(F)F)ccc1-n1nccn1 [Ex. 5.147]
- IC50 (human orexin-1 receptor): 27 nM
- IC50 (human orexin-2 receptor): 112 nM

Compound: COc1ccccc1-c1ccc(C)cc1C(=O)N1CCC[C@@]1(C)c1nc2cc(C(F)(F)F)c(Cl)cc2[nH]1 [Ex. 5.148]
- IC50 (human orexin-1 receptor): 35 nM
- IC50 (human orexin-2 receptor): 159 nM

Compound: COc1cccc(-c2ccc(C)cc2C(=O)N2CCC[C@@]2(C)c2nc3cc(C(F)(F)F)c(Cl)cc3[nH]2)c1 [Ex. 5.149]
- IC50 (human orexin-1 receptor): 21 nM
- IC50 (human orexin-2 receptor): 26 nM

Compound: COc1ccc(-c2ccc(C)cc2C(=O)N2CCC[C@@]2(C)c2nc3cc(C(F)(F)F)c(Cl)cc3[nH]2)cc1 [Ex. 5.150]
- IC50 (human orexin-1 receptor): 37 nM
- IC50 (human orexin-2 receptor): 49 nM

Compound: Cc1ccc(-c2ccccc2F)c(C(=O)N2CCC[C@@]2(C)c2nc3cc(C(F)(F)F)c(Cl)cc3[nH]2)c1 [Ex. 5.151]
- IC50 (human orexin-1 receptor): 20 nM
- IC50 (human orexin-2 receptor): 40 nM

Compound: Cc1ccc(-c2ccc(F)cc2)c(C(=O)N2CCC[C@@]2(C)c2nc3cc(C(F)(F)F)c(Cl)cc3[nH]2)c1 [Ex. 5.152]
- IC50 (human orexin-1 receptor): 24 nM
- IC50 (human orexin-2 receptor): 51 nM

Compound: Cc1ccc(-c2cccc(F)c2)c(C(=O)N2CCC[C@@]2(C)c2nc3cc(C(F)(F)F)c(Cl)cc3[nH]2)c1 [Ex. 5.153]
- IC50 (human orexin-1 receptor): 22 nM
- IC50 (human orexin-2 receptor): 35 nM

Compound: Cc1ccc(-c2ccc(C)cc2C(=O)N2CCC[C@@]2(C)c2nc3cc(C(F)(F)F)c(Cl)cc3[nH]2)cc1 [Ex. 5.154]
- IC50 (human orexin-1 receptor): 59 nM
- IC50 (human orexin-2 receptor): 61 nM

Compound: Cc1ccc(-c2cccc(C(F)(F)F)c2)c(C(=O)N2CCC[C@@]2(C)c2nc3cc(C(F)(F)F)c(Cl)cc3[nH]2)c1 [Ex. 5.155]
- IC50 (human orexin-1 receptor): 134 nM
- IC50 (human orexin-2 receptor): 249 nM

Compound: Cc1ccc(-c2ccc3c(c2)OCO3)c(C(=O)N2CCC[C@@]2(C)c2nc3cc(C(F)(F)F)c(Cl)cc3[nH]2)c1 [Ex. 5.156]
- IC50 (human orexin-1 receptor): 38 nM
- IC50 (human orexin-2 receptor): 54 nM

Compound: Cc1ccc(-c2ccc(C(F)(F)F)cc2)c(C(=O)N2CCC[C@@]2(C)c2nc3cc(C(F)(F)F)c(Cl)cc3[nH]2)c1 [Ex. 5.157]
- IC50 (human orexin-1 receptor): 367 nM
- IC50 (human orexin-2 receptor): 538 nM

Compound: Cc1ccc(-c2ccc(OC(F)(F)F)cc2)c(C(=O)N2CCC[C@@]2(C)c2nc3cc(C(F)(F)F)c(Cl)cc3[nH]2)c1 [Ex. 5.158]
- IC50 (human orexin-1 receptor): 525 nM
- IC50 (human orexin-2 receptor): 879 nM

Compound: Cc1ccc(-c2cccc(C#N)c2)c(C(=O)N2CCC[C@@]2(C)c2nc3cc(C(F)(F)F)c(Cl)cc3[nH]2)c1 [Ex. 5.159]
- IC50 (human orexin-1 receptor): 23 nM
- IC50 (human orexin-2 receptor): 37 nM

Compound: Cc1ccc(-c2ccc(C#N)cc2)c(C(=O)N2CCC[C@@]2(C)c2nc3cc(C(F)(F)F)c(Cl)cc3[nH]2)c1 [Ex. 5.160]
- IC50 (human orexin-1 receptor): 38 nM
- IC50 (human orexin-2 receptor): 113 nM

Compound: Cc1ccc(-c2cccc(C)c2C)c(C(=O)N2CCC[C@@]2(C)c2nc3cc(C(F)(F)F)c(Cl)cc3[nH]2)c1 [Ex. 5.161]
- IC50 (human orexin-1 receptor): 405 nM
- IC50 (human orexin-2 receptor): 388 nM

Compound: CCOc1ccc(-c2ccc(C)cc2C(=O)N2CCC[C@@]2(C)c2nc3cc(C(F)(F)F)c(Cl)cc3[nH]2)cc1 [Ex. 5.162]
- IC50 (human orexin-1 receptor): 252 nM
- IC50 (human orexin-2 receptor): 250 nM

Compound: Cc1ccc(-c2cccc(OC(F)(F)F)c2)c(C(=O)N2CCC[C@@]2(C)c2nc3cc(C(F)(F)F)c(Cl)cc3[nH]2)c1 [Ex. 5.163]
- IC50 (human orexin-1 receptor): 142 nM
- IC50 (human orexin-2 receptor): 401 nM

Compound: C[C@@]1(c2nc3cc(C(F)(F)F)ccc3[nH]2)CCCN1C(=O)c1c(F)cccc1-n1nccn1 [Ex. 5.164]
- IC50 (human orexin-1 receptor): 104 nM
- IC50 (human orexin-2 receptor): 419 nM

Compound: C[C@@]1(c2nc3cc(C(F)(F)F)ccc3[nH]2)CCCN1C(=O)c1cc(F)ccc1-n1nccn1 [Ex. 5.165]
- IC50 (human orexin-1 receptor): 65 nM
- IC50 (human orexin-2 receptor): 355 nM

Compound: C[C@@]1(c2nc3cc(C(F)(F)F)ccc3[nH]2)CCCN1C(=O)c1cc(Cl)ccc1-n1nccn1 [Ex. 5.166]
- IC50 (human orexin-1 receptor): 13 nM
- IC50 (human orexin-2 receptor): 59 nM

Compound: C[C@@]1(c2nc3cc(C(F)(F)F)ccc3[nH]2)CCCN1C(=O)c1ccccc1-n1nccn1 [Ex. 5.167]
- IC50 (human orexin-1 receptor): 91 nM
- IC50 (human orexin-2 receptor): 351 nM

Compound: COc1ccc(-n2nccn2)c(C(=O)N2CCC[C@@]2(C)c2nc3cc(C(F)(F)F)ccc3[nH]2)c1F [Ex. 5.168]
- IC50 (human orexin-1 receptor): 64 nM
- IC50 (human orexin-2 receptor): 570 nM

Compound: Cc1ccc(-n2nccn2)c(C(=O)N2CCC[C@@]2(C)c2nc3cc(C(F)(F)F)ccc3[nH]2)c1F [Ex. 5.169]
- IC50 (human orexin-1 receptor): 63 nM
- IC50 (human orexin-2 receptor): 197 nM

Compound: Cc1cc(C(=O)N2CCC[C@@]2(C)c2nc3cc(C(F)(F)F)ccc3[nH]2)c(-n2nccn2)cc1C [Ex. 5.170]
- IC50 (human orexin-1 receptor): 2 nM
- IC50 (human orexin-2 receptor): 13 nM

Compound: Cc1ccc(C(=O)N2CCC[C@@]2(C)c2nc3cc(C(F)(F)F)ccc3[nH]2)c(-n2nccn2)c1 [Ex. 5.171]
- IC50 (human orexin-1 receptor): 12 nM
- IC50 (human orexin-2 receptor): 58 nM

Compound: C[C@@]1(c2nc3cc(C(F)(F)F)ccc3[nH]2)CCCN1C(=O)c1cc(C(F)(F)F)ccc1-n1nccn1 [Ex. 5.172]
- IC50 (human orexin-1 receptor): 92 nM
- IC50 (human orexin-2 receptor): 704 nM

Compound: C[C@@]1(c2nc3cc(C(F)(F)F)ccc3[nH]2)CCCN1C(=O)c1cc(OC(F)(F)F)ccc1-n1nccn1 [Ex. 5.173]
- IC50 (human orexin-1 receptor): 290 nM
- IC50 (human orexin-2 receptor): 1140 nM

Compound: COc1cc(C(=O)N2CCC[C@@]2(C)c2nc3cc(C(F)(F)F)ccc3[nH]2)c(-n2nccn2)cc1OC [Ex. 5.174]
- IC50 (human orexin-1 receptor): 59 nM
- IC50 (human orexin-2 receptor): 133 nM

Compound: Cc1ccc(-n2cccn2)c(C(=O)N2CCC[C@@]2(C)c2nc3cc(C(F)(F)F)ccc3[nH]2)c1 [Ex. 5.175]
- IC50 (human orexin-1 receptor): 24 nM
- IC50 (human orexin-2 receptor): 355 nM

Compound: C[C@@]1(c2nc3cc(C(F)(F)F)ccc3[nH]2)CCCN1C(=O)c1ccccc1-n1cccn1 [Ex. 5.176]
- IC50 (human orexin-1 receptor): 389 nM
- IC50 (human orexin-2 receptor): 1070 nM

Compound: Cc1ccc(-n2cccn2)c(C(=O)N2CCC[C@@]2(C)c2nc3cc(C(F)(F)F)ccc3[nH]2)n1 [Ex. 5.177]
- IC50 (human orexin-1 receptor): 76 nM
- IC50 (human orexin-2 receptor): 860 nM

Compound: Cc1ccc(-n2nccn2)c(C(=O)N2CCC[C@@]2(C)c2nc3cc(C(F)(F)F)ccc3[nH]2)n1 [Ex. 5.178]
- IC50 (human orexin-1 receptor): 20 nM
- IC50 (human orexin-2 receptor): 280 nM

Compound: Cc1cccc(C(=O)N2CCC[C@@]2(C)c2nc3cc(C(F)(F)F)ccc3[nH]2)c1-n1nccn1 [Ex. 5.179]
- IC50 (human orexin-1 receptor): 368 nM
- IC50 (human orexin-2 receptor): 1120 nM

Compound: C[C@@]1(c2nc3cc(C(F)(F)F)ccc3[nH]2)CCCN1C(=O)c1cc(C#N)ccc1-n1nccn1 [Ex. 5.180]
- IC50 (human orexin-1 receptor): 42 nM
- IC50 (human orexin-2 receptor): 261 nM

Compound: Cc1ccc(-c2ccc(F)cc2C)c(C(=O)N2CCC[C@@]2(C)c2nc3cc(C(F)(F)F)ccc3[nH]2)c1 [Ex. 5.181]
- IC50 (human orexin-1 receptor): 385 nM
- IC50 (human orexin-2 receptor): 556 nM

Compound: Cc1ccc(-c2cccc(F)c2)c(C(=O)N2CCC[C@@]2(C)c2nc3cc(C(F)(F)F)ccc3[nH]2)c1 [Ex. 5.182]
- IC50 (human orexin-1 receptor): 10 nM
- IC50 (human orexin-2 receptor): 55 nM

Compound: Cc1ccc(-c2ccc(C(F)(F)F)cc2)c(C(=O)N2CCC[C@@]2(C)c2nc3cc(C(F)(F)F)ccc3[nH]2)c1 [Ex. 5.183]
- IC50 (human orexin-1 receptor): 339 nM
- IC50 (human orexin-2 receptor): 1160 nM

Compound: Cc1ccc(-c2cccc(OC(F)(F)F)c2)c(C(=O)N2CCC[C@@]2(C)c2nc3cc(C(F)(F)F)ccc3[nH]2)c1 [Ex. 5.184]
- IC50 (human orexin-1 receptor): 300 nM
- IC50 (human orexin-2 receptor): 413 nM

Compound: COc1ccccc1-c1ccc(C)cc1C(=O)N1CCC[C@@]1(C)c1nc2cc(C(F)(F)F)ccc2[nH]1 [Ex. 5.185]
- IC50 (human orexin-1 receptor): 91 nM
- IC50 (human orexin-2 receptor): 283 nM

Compound: Cc1ccc(-c2ccccc2C)c(C(=O)N2CCC[C@@]2(C)c2nc3cc(C(F)(F)F)ccc3[nH]2)c1 [Ex. 5.186]
- IC50 (human orexin-1 receptor): 120 nM
- IC50 (human orexin-2 receptor): 294 nM

Compound: Cc1ccc(-c2ccc(OC(F)(F)F)cc2)c(C(=O)N2CCC[C@@]2(C)c2nc3cc(C(F)(F)F)ccc3[nH]2)c1 [Ex. 5.187]
- IC50 (human orexin-1 receptor): 310 nM
- IC50 (human orexin-2 receptor): > 2590 nM

Compound: COc1cccc(-c2ccc(C)cc2C(=O)N2CCC[C@@]2(C)c2nc3cc(C(F)(F)F)ccc3[nH]2)c1 [Ex. 5.188]
- IC50 (human orexin-1 receptor): 23 nM
- IC50 (human orexin-2 receptor): 119 nM

Compound: Cc1cccc(-c2ccc(C)cc2C(=O)N2CCC[C@@]2(C)c2nc3cc(C(F)(F)F)ccc3[nH]2)c1 [Ex. 5.189]
- IC50 (human orexin-1 receptor): 16 nM
- IC50 (human orexin-2 receptor): 62 nM
